Literature values as cited in US6660719B2, “Inhibiting T-Cell proliferation” (BioCryst Pharmaceuticals Inc., priority 2001, dated 2003).
Read-outs that look alike come from different tables or passages of the source.

Legend:
CCRF-CEM cells = conditions: given with 2′-deoxyguanosine
Molt-4 cells = conditions: given with 2′-deoxyguanosine
[1] = tested on: peripheral blood lymphocytes; conditions: 2′-deoxyguanosine alone, without PNP inhibition; species not given
[2] = tested on: peripheral blood lymphocytes; conditions: given to rats with 2′-deoxyguanosine
[3] = tested on: peripheral blood lymphocytes; conditions: given to dogs with 2′-deoxyguanosine
T-cells = conditions: rats; given with 2′-deoxyguanosine

In the case of `Nc1nc2nc(N)[nH]c2c(=O)[nH]1` [8-Aminoguanine], the “proliferation of human T-cells in cultures” value (CCRF-CEM cells) is given as “inhibits the proliferation” and the “proliferation of human T-cells in cultures” value (Molt-4 cells) is given as “inhibits the proliferation”.
In the case of `Nc1nc2c(ncn2[C@H]2C[C@H](O)[C@@H](CO)O2)c(=O)[nH]1` [2′-deoxyguanosine], the “cell counts (lymphopenia)” value [1] is listed as “did not significantly decrease cell counts”.
For `Nc1nc2c(nc(N)n2[C@@H]2O[C@H](CO)[C@@H](O)[C@H]2O)c(=O)[nH]1` [8-Aminoguanosine], the peripheral blood lymphocytes [2] is listed as “profound fall”, the peripheral blood lymphocytes [3] is listed as “profound fall” and the “levels of 2′-deoxyguanosine triphosphate (dGTP) in T-cells” value (T-cells) is listed as “increased levels”.
